The record followed here is patent US11279701B2, “Immunomodulators and immunomodulator conjugates” (REGENTS OF THE UNIVERSITY OF MINNESOTA, priority 2016, dated 2022).

One experiment deals with T1, human TLR-8 (Homo sapiens, UniProt Q9NR97).
T1 construct: host or cells: HEK cells stably transfected with human TLR-8 and an NF-κB-responsive SEAP reporter (HEK-TLR-8)
T1 sequence (Q9NR97 27-1041): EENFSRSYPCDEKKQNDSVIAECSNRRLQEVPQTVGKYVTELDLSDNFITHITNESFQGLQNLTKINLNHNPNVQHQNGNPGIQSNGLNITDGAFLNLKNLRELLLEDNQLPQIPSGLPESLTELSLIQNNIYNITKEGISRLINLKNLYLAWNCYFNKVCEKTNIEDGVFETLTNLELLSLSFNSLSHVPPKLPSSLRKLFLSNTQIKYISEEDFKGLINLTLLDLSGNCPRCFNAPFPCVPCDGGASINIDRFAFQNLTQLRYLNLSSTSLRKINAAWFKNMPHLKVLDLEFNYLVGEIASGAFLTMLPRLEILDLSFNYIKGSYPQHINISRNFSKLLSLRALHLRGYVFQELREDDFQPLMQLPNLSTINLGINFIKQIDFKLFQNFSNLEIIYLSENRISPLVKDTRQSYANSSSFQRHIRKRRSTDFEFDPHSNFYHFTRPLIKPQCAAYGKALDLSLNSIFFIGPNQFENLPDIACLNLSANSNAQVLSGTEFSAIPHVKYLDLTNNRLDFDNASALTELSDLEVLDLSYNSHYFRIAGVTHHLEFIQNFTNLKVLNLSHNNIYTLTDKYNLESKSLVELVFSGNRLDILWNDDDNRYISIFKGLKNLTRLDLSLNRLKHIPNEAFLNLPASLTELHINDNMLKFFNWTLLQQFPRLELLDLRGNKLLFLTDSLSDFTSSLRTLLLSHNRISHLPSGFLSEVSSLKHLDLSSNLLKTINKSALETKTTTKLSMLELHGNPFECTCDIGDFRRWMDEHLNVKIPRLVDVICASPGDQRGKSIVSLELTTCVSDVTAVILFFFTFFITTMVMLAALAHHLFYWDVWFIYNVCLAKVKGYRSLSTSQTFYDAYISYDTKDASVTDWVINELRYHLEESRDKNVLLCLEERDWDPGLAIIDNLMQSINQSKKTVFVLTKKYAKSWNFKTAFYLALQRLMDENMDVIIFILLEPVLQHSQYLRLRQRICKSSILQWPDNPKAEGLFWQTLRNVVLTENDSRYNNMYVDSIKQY
As to the kind of experiment: TLR7/8-NF-κB Reporter Assay (HEK SEAP Reporter Assay), HEK-TLR-8 cells. The experiment is classed as cell-based. The note with it: HEK cells stably transfected with human TLR-8 and NF-κB-responsive SEAP gene, 24 h. On the technique in general: Reporter assays use an easily measured gene product as a stand-in for the process of interest.

A further experiment deals with T2, human TLR-7 (Homo sapiens, UniProt Q9NYK1).
T2 construct: host or cells: HEK cells stably transfected with human TLR-7 and an NF-κB-responsive SEAP reporter (HEK-TLR-7)
T2 sequence (Q9NYK1 27-1049): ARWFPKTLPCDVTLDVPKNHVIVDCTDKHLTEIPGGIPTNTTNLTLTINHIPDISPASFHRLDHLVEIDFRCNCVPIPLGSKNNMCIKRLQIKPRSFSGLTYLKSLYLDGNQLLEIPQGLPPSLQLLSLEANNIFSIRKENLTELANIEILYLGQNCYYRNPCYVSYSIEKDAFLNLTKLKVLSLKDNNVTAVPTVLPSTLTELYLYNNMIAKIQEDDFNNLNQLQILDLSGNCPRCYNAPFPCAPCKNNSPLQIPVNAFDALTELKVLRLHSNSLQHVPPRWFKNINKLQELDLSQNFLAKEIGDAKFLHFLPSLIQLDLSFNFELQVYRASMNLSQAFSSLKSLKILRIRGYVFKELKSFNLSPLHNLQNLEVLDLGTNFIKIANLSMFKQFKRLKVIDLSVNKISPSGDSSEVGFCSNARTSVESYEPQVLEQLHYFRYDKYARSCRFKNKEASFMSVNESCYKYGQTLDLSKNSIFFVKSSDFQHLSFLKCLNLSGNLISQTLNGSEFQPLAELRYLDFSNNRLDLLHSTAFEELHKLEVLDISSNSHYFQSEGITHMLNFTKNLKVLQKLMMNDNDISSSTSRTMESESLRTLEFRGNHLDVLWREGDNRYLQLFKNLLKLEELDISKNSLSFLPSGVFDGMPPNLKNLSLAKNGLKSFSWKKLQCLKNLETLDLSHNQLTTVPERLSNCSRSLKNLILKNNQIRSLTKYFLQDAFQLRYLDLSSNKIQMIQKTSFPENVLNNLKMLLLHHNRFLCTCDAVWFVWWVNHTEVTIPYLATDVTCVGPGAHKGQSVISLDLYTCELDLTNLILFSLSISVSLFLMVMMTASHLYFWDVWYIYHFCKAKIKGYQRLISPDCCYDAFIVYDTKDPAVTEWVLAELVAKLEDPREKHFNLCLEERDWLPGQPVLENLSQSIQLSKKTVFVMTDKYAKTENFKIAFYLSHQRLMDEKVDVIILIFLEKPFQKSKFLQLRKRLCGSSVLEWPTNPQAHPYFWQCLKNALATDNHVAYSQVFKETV
Put plainly: TLR7/8-NF-κB Reporter Assay (HEK SEAP Reporter Assay), HEK-TLR-7 cells. It is filed as cell-based. To be noted: HEK cells stably transfected with human TLR-7 and NF-κB-responsive SEAP gene, 24 h.

Usually EC50 stands for the concentration giving half of the maximal effect. In the case of “4-amino-2-butyl-1-(2-hydroxypropyl)-7-benzenesulphonyl-1H-imidazo[4,5-c]quinoline [Compound 548]”, the EC50 came out at 0.29 µM at human TLR-8 and 1.53 µM on human TLR-7.

As to `CCCCc1nc2c(N)nc3cc(C(=O)OC)ccc3c2n1CCCNS(=O)(=O)c1ccccc1` [Compound 544], the EC50 amounted to 0.24 µM on human TLR-8 and 0.42 µM at human TLR-7.

`CCCCc1nc2c(N)nc3cc(C(=O)OC)ccc3c2n1Cc1ccc(C(=O)O)cc1` [Compound 556] came in with an EC50 at human TLR-7 of 189 µM.

Compound `CCCCc1nc2c(N)nc3cc(C(=O)OC)ccc3c2n1CCSC` [Compound 563] displayed an EC50 on human TLR-7 of 2.9 µM.

In the case of `CCCCc1nc2c(N)nc3cc(C(=O)OC)ccc3c2n1CCCSC` [Compound 564], on human TLR-7, a half-maximal response (EC50) required 3.8 µM.

On human TLR-7, `CCCCc1nc2c(N)nc3cc(C(=O)OC)ccc3c2n1CCSCC` [Compound 565] showed a concentration giving a half-maximal response (EC50) of 6.7 µM.

`CCCCc1nc2c(N)nc3cc(C(=O)OC)ccc3c2n1CC(=O)OC` [Compound 566]: on human TLR-7, the EC50 is 3.3 µM.

As for `CCCCc1nc2c(N)nc3cc(C(=O)OC)ccc3c2n1CCC(=O)OC` [Compound 567], the response on human TLR-7 was half-maximal at 3.6 µM (EC50).

Take `CCCCc1nc2c(N)nc3cc(C(=O)OC)ccc3c2n1CCCC(=O)OC` [Compound 568]: the concentration for a half-maximal effect (EC50) on human TLR-7 was determined as 4.5 µM.

In turn, `CCCCc1nc2c(N)nc3cc(C(=O)OC)ccc3c2n1CCCCC(=O)OC` [Compound 569] came in with an EC50 at human TLR-7 of 1.74 µM.

On human TLR-7, `CCCCc1nc2c(N)nc3cc(C(=O)OC)ccc3c2n1CCCCCC(=O)OC` [Compound 570] yielded an EC50 of 2.9 µM.

At human TLR-8, `CCCCc1nc2c(N)nc3cc(C(=O)OC)ccc3c2n1CCCN` [Compound 572] returned an EC50 of 66 µM.

For the compound `CCCCc1nc2c(N)nc3cc(C(=O)OC)ccc3c2n1CCCCN` [Compound 573], on human TLR-8, a half-maximal response (EC50) required 3.85 µM.

Consider `CCCCc1nc2c(N)nc3cc(C(=O)OC)ccc3c2n1CCCCCN` [Compound 574], for which the EC50 came out at 2.2 µM on human TLR-8 and 0.6 µM on human TLR-7.
